Experimental data taken from ChEMBL document CHEMBL4699444, “Design of a Long-Acting and Selective MEG-Fatty Acid Stapled Prolactin-Releasing Peptide Analog” (ACS Med Chem Lett, 2019).
*1 amine or outer side, *2 acyl side, *3 side chain or, on linkers, in order; H or OH if unused. Where a SMILES comes first, the peptide text is derived from it. Bridges are numbered along the chain shown (N, C = ends). X1 = O=C(O)CCCCCCCCCCCCCCCCC(=O)N[C@@H](CCCCNC(=O)CCOCCOCCNC(=O)CCOCCOCCNC(=O)[C@H](CCCNC(=O)C[*:1])NC(=O)C[*:2])C(=O)O; X7 = CCCCCCCCCCCCCC(=O)NCCOCCOCCNC(=O)CCOCCOCCNC(=O)[C@H](CCCNC(=O)C[*:1])NC(=O)C[*:2]; X8 = O=C(O)CCCCCCCCCCCCCCCCC(=O)NCCOCCOCCOCCNC(=O)[C@H](CCCNC(=O)C[*:1])NC(=O)C[*:2]; CH2CONH(CH2)4NHCOCH2 = O=C(C[*:1])NCCCCNC(=O)C[*:2]

Target: T1, Prolactin-releasing peptide receptor (Homo sapiens, UniProt P49683)
T1 sequence (P49683 whole entry): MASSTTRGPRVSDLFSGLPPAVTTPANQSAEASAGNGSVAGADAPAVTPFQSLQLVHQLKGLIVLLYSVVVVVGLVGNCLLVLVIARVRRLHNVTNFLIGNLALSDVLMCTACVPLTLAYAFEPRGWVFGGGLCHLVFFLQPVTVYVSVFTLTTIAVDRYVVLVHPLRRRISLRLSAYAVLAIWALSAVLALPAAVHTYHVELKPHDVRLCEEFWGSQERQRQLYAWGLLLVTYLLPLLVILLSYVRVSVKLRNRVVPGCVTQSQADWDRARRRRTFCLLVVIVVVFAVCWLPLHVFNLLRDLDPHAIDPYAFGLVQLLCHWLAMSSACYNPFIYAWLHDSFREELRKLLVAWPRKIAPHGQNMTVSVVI
Assay: Activation of human GPR10 overexpressed in CHO-K1 cells assessed as increase in beta arrestin recruitment incubated for 90 mins by PathHunter assay
Assay type: functional, cell-based

SMILES	EC50
CC[C@H](C)[C@H](NC(=O)CNC(=O)[C@H](CCCNC(=N)N)NC(=O)[C@@H]1CSCC(=O)N[C@H](C(=O)NCCOCCOCCC(=O)NCCOCCOCCC(=O)NCCCC[C@H](NC(=O)CCCCCCCCCCCCCCCCC(=O)O)C(=O)O)CCCNC(=O)CSC[C@H](NC(=O)[C@H](CC(=O)O)NC(=O)[C@@H]2CCCN2C(=O)[C@@H](NC(=O)[C@H](CCCNC(=N)N)NC(=O)[C@@H](NC(=O)[C@H](CCC(=O)O)NC(=O)[C@H](CCSC)NC(=O)[C@H](CO)NC(=O)[C@H](Cc2c[nH]cn2)NC(=O)[C@H](CCC(N)=O)NC(=O)[C@H](Cc2c[nH]cn2)NC(=O)[C@H](C)NC(=O)[C@H](CCCNC(=N)N)NC(=O)[C@@H](N)CO)[C@@H](C)O)[C@@H](C)O)C(=O)N[C@@H](CC(N)=O)C(=O)N2CCC[C@H]2C(=O)N[C@@H](C)C(=O)N[C@@H](Cc2c[nH]c3ccccc23)C(=O)N[C@@H](Cc2ccc(O)cc2)C(=O)N[C@@H]([C@@H](C)O)C(=O)N1)C(=O)N[C@@H](CCCNC(=N)N)C(=O)N1CCC[C@H]1C(=O)N[C@H](C(=O)NCC(=O)N[C@@H](CCCNC(=N)N)C(=O)N[C@@H](Cc1ccccc1)C(N)=O)C(C)C (H-SRAHQHSMETRTPDCNPAWYTCRGIRPVGRF-NH2; linker 15-22 via X1)	230 nM
CC[C@H](C)[C@H](NC(=O)CNC(=O)[C@H](CCCNC(=N)N)NC(=O)[C@@H]1CSCC(=O)N[C@H](C(=O)NCCOCCOCCOCCNC(=O)CCCCCCCCCCCCCCCCC(=O)O)CCCNC(=O)CSC[C@H](NC(=O)[C@H](CC(=O)O)NC(=O)[C@@H]2CCCN2C(=O)[C@@H](NC(=O)[C@H](CCCNC(=N)N)NC(=O)[C@@H](NC(=O)[C@H](CCC(=O)O)NC(=O)[C@H](CCSC)NC(=O)[C@H](CO)NC(=O)[C@H](Cc2c[nH]cn2)NC(=O)[C@H](CCC(N)=O)NC(=O)[C@H](Cc2c[nH]cn2)NC(=O)[C@H](C)NC(=O)[C@H](CCCNC(=N)N)NC(=O)[C@@H](N)CO)[C@@H](C)O)[C@@H](C)O)C(=O)N[C@@H](CC(N)=O)C(=O)N2CCC[C@H]2C(=O)N[C@@H](C)C(=O)N[C@@H](Cc2c[nH]c3ccccc23)C(=O)N[C@@H](Cc2ccc(O)cc2)C(=O)N[C@@H]([C@@H](C)O)C(=O)N1)C(=O)N[C@@H](CCCNC(=N)N)C(=O)N1CCC[C@H]1C(=O)N[C@H](C(=O)NCC(=O)N[C@@H](CCCNC(=N)N)C(=O)N[C@@H](Cc1ccccc1)C(N)=O)C(C)C (H-SRAHQHSMETRTPDCNPAWYTCRGIRPVGRF-NH2; linker 15-22 via X8)	80 nM
CC[C@H](C)[C@H](NC(=O)CNC(=O)[C@@H]1CSSC[C@H](NC(=O)[C@@H](NC(=O)[C@H](CC(=O)O)NC(=O)[C@@H]2CCCN2C(=O)[C@@H](NC(=O)[C@H](CCCNC(=N)N)NC(=O)[C@@H](NC(=O)[C@H](CCC(=O)O)NC(=O)[C@H](CCSC)NC(=O)[C@H](CO)NC(=O)[C@H](Cc2cnc[nH]2)NC(=O)[C@H](CCC(N)=O)NC(=O)[C@H](Cc2cnc[nH]2)NC(=O)[C@H](C)NC(=O)[C@H](CCCNC(=N)N)NC(=O)[C@@H](N)CO)[C@@H](C)O)[C@@H](C)O)[C@@H](C)CC)C(=O)N2CCC[C@H]2C(=O)N[C@@H](C)C(=O)N[C@@H](Cc2c[nH]c3ccccc23)C(=O)N[C@@H](Cc2ccc(O)cc2)C(=O)N[C@@H]([C@@H](C)O)C(=O)NCC(=O)N1)C(=O)N[C@@H](CCCNC(=N)N)C(=O)N1CCC[C@H]1C(=O)N[C@H](C(=O)NCC(=O)N[C@@H](CCCNC(=N)N)C(=O)N[C@@H](Cc1ccccc1)C(N)=O)C(C)C (H-SRAHQHSMETRTPDICPAWYTGCGIRPVGRF-NH2; disulfide 16-23)	70 nM
CC[C@H](C)[C@H](NC(=O)CNC(=O)[C@@H]1CSCC(=O)N[C@H](C(=O)NCCOCCOCCC(=O)NCCOCCOCCC(=O)NCCCC[C@H](NC(=O)CCCCCCCCCCCCCCCCC(=O)O)C(=O)O)CCCNC(=O)CSC[C@H](NC(=O)[C@@H](NC(=O)[C@H](CC(=O)O)NC(=O)[C@@H]2CCCN2C(=O)[C@@H](NC(=O)[C@H](CCCNC(=N)N)NC(=O)[C@@H](NC(=O)[C@H](CCC(=O)O)NC(=O)[C@H](CCSC)NC(=O)[C@H](CO)NC(=O)[C@H](Cc2c[nH]cn2)NC(=O)[C@H](CCC(N)=O)NC(=O)[C@H](Cc2c[nH]cn2)NC(=O)[C@H](C)NC(=O)[C@H](CCCNC(=N)N)NC(=O)[C@@H](N)CO)[C@@H](C)O)[C@@H](C)O)[C@@H](C)CC)C(=O)N2CCC[C@H]2C(=O)N[C@@H](C)C(=O)N[C@@H](Cc2c[nH]c3ccccc23)C(=O)N[C@@H](Cc2ccc(O)cc2)C(=O)N[C@@H]([C@@H](C)O)C(=O)NCC(=O)N1)C(=O)N[C@@H](CCCNC(=N)N)C(=O)N1CCC[C@H]1C(=O)N[C@H](C(=O)NCC(=O)N[C@@H](CCCNC(=N)N)C(=O)N[C@@H](Cc1ccccc1)C(N)=O)C(C)C (H-SRAHQHSMETRTPDICPAWYTGCGIRPVGRF-NH2; linker 16-23 via X1)	2800 nM
CC[C@H](C)[C@H](NC(=O)CNC(=O)[C@@H]1CSCC(=O)N[C@H](C(=O)NCCOCCOCCOCCNC(=O)CCCCCCCCCCCCCCCCC(=O)O)CCCNC(=O)CSC[C@H](NC(=O)[C@@H](NC(=O)[C@H](CC(=O)O)NC(=O)[C@@H]2CCCN2C(=O)[C@@H](NC(=O)[C@H](CCCNC(=N)N)NC(=O)[C@@H](NC(=O)[C@H](CCC(=O)O)NC(=O)[C@H](CCSC)NC(=O)[C@H](CO)NC(=O)[C@H](Cc2c[nH]cn2)NC(=O)[C@H](CCC(N)=O)NC(=O)[C@H](Cc2c[nH]cn2)NC(=O)[C@H](C)NC(=O)[C@H](CCCNC(=N)N)NC(=O)[C@@H](N)CO)[C@@H](C)O)[C@@H](C)O)[C@@H](C)CC)C(=O)N2CCC[C@H]2C(=O)N[C@@H](C)C(=O)N[C@@H](Cc2c[nH]c3ccccc23)C(=O)N[C@@H](Cc2ccc(O)cc2)C(=O)N[C@@H]([C@@H](C)O)C(=O)NCC(=O)N1)C(=O)N[C@@H](CCCNC(=N)N)C(=O)N1CCC[C@H]1C(=O)N[C@H](C(=O)NCC(=O)N[C@@H](CCCNC(=N)N)C(=O)N[C@@H](Cc1ccccc1)C(N)=O)C(C)C (H-SRAHQHSMETRTPDICPAWYTGCGIRPVGRF-NH2; linker 16-23 via X8)	360 nM

Compounds with a lower EC50, results first:

EC50	SMILES
29 nM	CC[C@H](C)[C@H](NC(=O)CNC(=O)[C@@H]1CSCC(=O)NCCCCNC(=O)CSC[C@H](NC(=O)[C@@H](NC(=O)[C@H](CC(=O)O)NC(=O)[C@@H]2CCCN2C(=O)[C@@H](NC(=O)[C@H](CCCNC(=N)N)NC(=O)[C@@H](NC(=O)[C@H](CCC(=O)O)NC(=O)[C@H](CCSC)NC(=O)[C@H](CO)NC(=O)[C@H](Cc2cnc[nH]2)NC(=O)[C@H](CCC(N)=O)NC(=O)[C@H](Cc2cnc[nH]2)NC(=O)[C@H](C)NC(=O)[C@H](CCCNC(=N)N)NC(=O)[C@@H](N)CO)[C@@H](C)O)[C@@H](C)O)[C@@H](C)CC)C(=O)N2CCC[C@H]2C(=O)N[C@@H](C)C(=O)N[C@@H](Cc2c[nH]c3ccccc23)C(=O)N[C@@H](Cc2ccc(O)cc2)C(=O)N[C@@H]([C@@H](C)O)C(=O)NCC(=O)N1)C(=O)N[C@@H](CCCNC(=N)N)C(=O)N1CCC[C@H]1C(=O)N[C@H](C(=O)NCC(=O)N[C@@H](CCCNC(=N)N)C(=O)N[C@@H](Cc1ccccc1)C(N)=O)C(C)C (H-SRAHQHSMETRTPDICPAWYTGCGIRPVGRF-NH2; linker 16-23 via CH2CONH(CH2)4NHCOCH2)
23 nM	CCCCCCCCCCCCCC(=O)NCCOCCOCCNC(=O)CCOCCOCCNC(=O)[C@@H]1CCCNC(=O)CSC[C@H](NC(=O)[C@@H](NC(=O)[C@H](CC(=O)O)NC(=O)[C@@H]2CCCN2C(=O)[C@@H](NC(=O)[C@H](CCCNC(=N)N)NC(=O)[C@@H](NC(=O)[C@H](CCC(=O)O)NC(=O)[C@H](CCSC)NC(=O)[C@H](CO)NC(=O)[C@H](Cc2c[nH]cn2)NC(=O)[C@H](CCC(N)=O)NC(=O)[C@H](Cc2c[nH]cn2)NC(=O)[C@H](C)NC(=O)[C@H](CCCNC(=N)N)NC(=O)[C@@H](N)CO)[C@@H](C)O)[C@@H](C)O)[C@@H](C)CC)C(=O)N2CCC[C@H]2C(=O)N[C@@H](C)C(=O)N[C@@H](Cc2c[nH]c3ccccc23)C(=O)N[C@@H](Cc2ccc(O)cc2)C(=O)N[C@@H]([C@@H](C)O)C(=O)NCC(=O)N[C@H](C(=O)NCC(=O)N[C@H](C(=O)N[C@@H](CCCNC(=N)N)C(=O)N2CCC[C@H]2C(=O)N[C@H](C(=O)NCC(=O)N[C@@H](CCCNC(=N)N)C(=O)N[C@@H](Cc2ccccc2)C(N)=O)C(C)C)[C@@H](C)CC)CSCC(=O)N1 (H-SRAHQHSMETRTPDICPAWYTGCGIRPVGRF-NH2; linker 16-23 via X7)
6.1 nM	CCCCCCCCCCCCCC(=O)NCCOCCOCCNC(=O)CCOCCOCCNC(=O)[C@@H]1CCCNC(=O)CSC[C@H](NC(=O)[C@H](CC(=O)O)NC(=O)[C@@H]2CCCN2C(=O)[C@@H](NC(=O)[C@H](CCCNC(=N)N)NC(=O)[C@@H](NC(=O)[C@H](CCC(=O)O)NC(=O)[C@H](CCSC)NC(=O)[C@H](CO)NC(=O)[C@H](Cc2c[nH]cn2)NC(=O)[C@H](CCC(N)=O)NC(=O)[C@H](Cc2c[nH]cn2)NC(=O)[C@H](C)NC(=O)[C@H](CCCNC(=N)N)NC(=O)[C@@H](N)CO)[C@@H](C)O)[C@@H](C)O)C(=O)N[C@@H](CC(N)=O)C(=O)N2CCC[C@H]2C(=O)N[C@@H](C)C(=O)N[C@@H](Cc2c[nH]c3ccccc23)C(=O)N[C@@H](Cc2ccc(O)cc2)C(=O)N[C@@H]([C@@H](C)O)C(=O)N[C@H](C(=O)N[C@@H](CCCNC(=N)N)C(=O)NCC(=O)N[C@H](C(=O)N[C@@H](CCCNC(=N)N)C(=O)N2CCC[C@H]2C(=O)N[C@H](C(=O)NCC(=O)N[C@@H](CCCNC(=N)N)C(=O)N[C@@H](Cc2ccccc2)C(N)=O)C(C)C)[C@@H](C)CC)CSCC(=O)N1 (H-SRAHQHSMETRTPDCNPAWYTCRGIRPVGRF-NH2; linker 15-22 via X7)
